Tests used:
acyl-CoA synthetases = experiment: In vitro activity assay of Schizochytrium FAS-KO cell free homogenate with Triacsin C (HIP extraction, normal phase TLC); type: biochemical; settings: Triacsin C 0, 25, 100 or 200 uM, 10 minutes, then ATP and Mg+2, additional 20 minutes; effect at higher concentrations
Method: An example of a protocol for preparation of cell free homogenates (CFH) from the cell wall deficient strains of Schizochytrium is as follows. Cells were grown in A50-3 medium and then diluted into M2B medium. The media used for growing the KO strains were supplemented with the appropriate fatty acid. Cells were grown to an OD600 nm of >˜2.5 and <˜5 in the M2B media. Cells in 50 mL of culture medium were collected by centrifugation (table top centrifuge—˜1200 rpm×4 minutes) in 50 mL plastic tubes. The supernatant was decanted and the cells resuspended 5 mL Buffer A (100 mM Phosphate pH 7.2, 10% (w/v) glycerol, 1 mM EDTA and 2 mM DTT) and centrifuged as before. The supernatant was discarded and the cells resuspended in ice cold 5 mL Buffer A. The suspension was sonicated (Ultrasonic Processor Model GE130 with microtip, Pulser at 2 seconds, ˜1 Watt power setting) with tube on ice for 1.5 minutes. The sample was checked by microscopy to ensure that all of the cells were broken. The CFH was aliquoted in 200 uL portions into 0.5 mL PCR tubes with caps and frozen by dropping into liquid N2. Samples were stored at −74° C. until needed.
An example of a protocol for in vitro activity assays of both FAS and PUFA synthase activities is as follows. […]

yeast = experiment: Fatty acid profile (GC of FAMEs) of yeast strains grown without or with cerulenin (FAS inhibition); type: cell-based, Saccharomyces cerevisiae
Excerpt: The present inventors tested the effects of cerulenin on fatty acid profiles of the strains of yeast described in Example 8 as a model of the concept of reduction of FAS activity. The yeast described in Example 9, which also contained an acyl CoA-synthetase, were additionally tested in this system, to determine whether the effects of the two strategies would additively or synergistically increase PUFA production.
Initial experiments indicated the maximum effect (i.e., as an increase in PUFAs as a percentage of the total fatty acid profile) was obtained at a concentration of 4 uM cerulenin. The cerulenin was added 4 hours after transfer to the galactose induction medium. Cells were harvested 19 hr after transfer to induction medium, freeze dried, FAMES prepared and analyzed by GC.
The yeast strains tested were: • Strain 5.5 contained the PUFA synthase genes (sOrfA, sOrfB, OrfC and Het I), as described in Example 8 above; and • Strain 5.6 contained the PUFA synthase gene set of Strain 5.5, plus the ScACoAS-1 (SEQ ID NO:82), as described in Example 9 above.
Referring to Table 2, “0 Cer” indicates cerulenin was not added, and “4 uM Cer” indicates the media was made to 4 uM cerulenin 4 hours after transfer to the induction medium). Each strain was evaluated for fatty acid production in the presence and absence of the cerulenin, to evaluate the effect of the inhibition of the FAS pathway on PUFA production. […] The values are given as a percentage of the total fatty acids detected. DHA and DPAn-6, which are the products of the Schizochytrium PUFA PKS system, were the only PUFAs present in the profiles. FIGS. 9 and 10 illustrate the amount of DHA (FIG. 9) or DHA and DPAn-6 (FIG. 10; white bars are DHA; black bars are DHA+DPAn-6) produced by the yeast, as a percentage of total FAME.

Schizochytrium = experiment: Knock out of the DAGAT gene in Schizochytrium, lipid profile; type: cell-based; settings: inactivation of the DAGAT gene in Schizochytrium

Molecule: CCC/C=C/C/C=C/C=C/C=N/NN=O [Triacsin C]
- loss of radiolabel from the FFA band (acyl-CoA synthetases): blocked the loss of radiolabel from the FFA band

Molecule: C/C=C/C/C=C/CCC(=O)[C@H]1O[C@H]1C(N)=O [cerulenin]
- DHA level, of total fatty acids (yeast; cells expressing both the PUFA synthase and ScACoAS-1 genes grown in 4 uM cerulenin (4.1% without)): 8.2%
- DHA level (yeast; cells with just the PUFA synthase system grown in 4 uM cerulenin (1.2% without)): 3.7%
- concentration giving the maximum effect (increase in PUFAs as a percentage of the total fatty acid profile) (yeast; initial experiments): 4 µM

B1: DAGAT: Schizochytrium diacylglycerol acyltransferase, SEQ ID NO:100/101 (protein, listed as Schizochytrium sp.)
chain: MERPQAQASPARSEARRRRGDRSKGFADEDGETSVNTPNGMQTPYSTSMGSVSSYSSSGDYAMSEAEGSEVDPADDRMGDSIGSKPSSSSVTGRRRLTQEERDYFLRLEKEWREEDAWADQPGSWYSMLAWMPVLIGLRVFNVLLSIAFWPVSFVARVFFGKKIHTVSFWDVPLSRRKQTAVVLLFVMLLPMVVVVYSWTLVLLLFPLTTFPTLCYMVWIIYVDKSPETGSRRPFLRYWKMWRHFANYFPLRLIRTTPLDSRRKYVFCYHPHGIISLGAFGNFATDSTGFSRKFPGIDLRVLTLALNFYCPLLREFLLYLGLCSAAKKSCNQILQRGPGSAIMLVVGGAAESLDSQPGTYRLTLGRKGFVRVALDNGADLVPVLAFGENDVFDTVYLPPNSWARNVQEFVRKKLGFATPIFSGRGIFQYNMGLMPHRRPIIVVVGKPIKMPKIPDELKGRALSTTAEGVALVDKYHEKYVKALRELWNLYKERWAVHRQGSLLIQK
- reduction in TAG (Schizochytrium): ~90%
- reduction in mg FAME/gm biomass (Schizochytrium): ~80%

— US20070245431A1, “POLYUNSATURATED FATTY ACID PRODUCTION IN HETEROLOGOUS ORGANISMS USING PUFA POLYKETIDE SYNTHASE SYSTEMS” (priority 2006, published 2007)
